Like-named read-outs stand apart in the source and are kept apart here.
Legend:
glucocorticoid receptor = molecular target: T1, glucocorticoid receptor (Homo sapiens, UniProt P04150); test: Hep G2 TAT assay: induction of TAT by dexamethasone in HepG2 cells; type: cell-based
T1 construct: host or cells: HepG2
T1 sequence (P04150 1-777): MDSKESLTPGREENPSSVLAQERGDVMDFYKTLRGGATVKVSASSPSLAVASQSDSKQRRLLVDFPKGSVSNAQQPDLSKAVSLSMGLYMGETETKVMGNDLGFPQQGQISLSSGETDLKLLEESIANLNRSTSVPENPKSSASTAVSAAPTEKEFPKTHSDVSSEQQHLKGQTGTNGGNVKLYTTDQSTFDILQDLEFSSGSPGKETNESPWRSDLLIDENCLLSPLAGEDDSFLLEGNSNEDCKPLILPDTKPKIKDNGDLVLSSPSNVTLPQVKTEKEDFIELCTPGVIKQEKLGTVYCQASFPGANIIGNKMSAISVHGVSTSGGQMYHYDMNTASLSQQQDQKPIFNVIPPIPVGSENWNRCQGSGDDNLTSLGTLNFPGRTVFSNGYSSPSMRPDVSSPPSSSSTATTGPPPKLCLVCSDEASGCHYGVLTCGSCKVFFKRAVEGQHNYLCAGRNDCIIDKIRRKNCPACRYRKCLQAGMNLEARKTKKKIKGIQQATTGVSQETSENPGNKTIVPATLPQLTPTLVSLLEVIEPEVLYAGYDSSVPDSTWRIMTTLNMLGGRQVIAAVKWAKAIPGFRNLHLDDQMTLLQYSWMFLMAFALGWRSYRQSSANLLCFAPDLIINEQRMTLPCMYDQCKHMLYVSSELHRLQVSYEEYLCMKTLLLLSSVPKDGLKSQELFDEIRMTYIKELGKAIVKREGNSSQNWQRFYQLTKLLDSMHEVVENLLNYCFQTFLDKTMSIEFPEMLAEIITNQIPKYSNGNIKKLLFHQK

[1] = Rat pharmacokinetics (PK) studies, oral gavage cassette; type: in vivo, male Sprague Dawley rats; settings: male, Sprague Dawley (or equivalent), rat plasma; for AUC(0-t): read-out: AUC0-24
Procedure: Rat PK studies were conducted in male Sprague Dawley rats (or equivalent) with 3 rats per group. Compounds were evaluated in cassettes of 4 compounds per cassette, with each cassette containing 3 test compounds and one comparator compound with known PK parameters. Rats were cannulated in the jugular vein. The compounds were administered by oral gavage using a suitable vehicle, such as 10% DMSO and 90% methyl cellulose. Compounds of Example 1, Example 10, Example 14, and Example 20 were evaluated with a nominal dose of 1.25 mg/kg and the compound of Example 32 was evaluated with a nominal dose of 3 mg/kg. Blood samples were collected at various timepoints out to 24 hours post-dose and processed to provide plasma. Compound concentrations in the plasma samples were determined by LC/MS analysis. Cmax and AUC were calculated using WinNonlin.

GR = molecular target: T2, GR (Homo sapiens, UniProt P04150); test: GR binding
T2 sequence (P04150 1-777): T1 sequence (P04150 1-777)

Compound	Ki (glucocorticoid receptor) [nM]	Cmax ([1]; nominal dose 1.25 mg/kg) [ng/mL]	AUC(0-t) ([1]; nominal dose 1.25 mg/kg) [ng·h/mL]	IC50 (GR) [nM]	further results
N#Cc1ccc(C2=CCC(c3[nH]c(=O)[nH]c(=O)c3Cc3ccccc3)CC2)c(Cl)c1 (stereo not drawn) [Example 1, 4′-(5-benzyl-2,6-dioxo-1,2,3,6-tetrahydropyrimidin-4-yl)-2-chloro-2′,3′,4′,5′-tetrahydro-[1,1′-biphenyl]-4-carbonitrile]	28	114	991		
O=c1[nH]c(C2CC=C(c3ccc(Cl)cc3C(F)(F)F)CC2)c(Cc2ccccc2)c(=O)[nH]1 (stereo not drawn) [Example 10]	38	196	3040		
O=c1[nH]c(C2CC=C(c3cccnc3C(F)(F)F)CC2)c(Cc2ccccc2)c(=O)[nH]1 (stereo not drawn) [Example 14]	41	63	188		
COc1cc(C#N)ccc1C1=CCC(c2[nH]c(=O)[nH]c(=O)c2Cc2ccccc2)CC1 (stereo not drawn) [Example 20]	33	83.6	375		
N#Cc1ccc(C2=CCC(c3[nH]c(=O)[nH]c(=O)c3Cc3ccccc3)CC2)c(C(F)(F)F)c1 (stereo not drawn) [Example 32]	66				Cmax ([1]; nominal dose 3 mg/kg): 453 ng/mL; AUC(0-t) ([1]; nominal dose 3 mg/kg): 988 ng·h/mL
CN(C)S(=O)(=O)c1cc(F)c(C2=CCC(c3[nH]c(=O)[nH]c(=O)c3Cc3ccccc3)CC2)c(F)c1 (stereo not drawn) [Example 104]				3160	
CCS(=O)(=O)c1cc(F)c(C2=CCC(c3[nH]c(=O)[nH]c(=O)c3Cc3ccccc3)CC2)c(F)c1 (stereo not drawn) [Example 105]				71.6	
CS(=O)(=O)c1ccc(C2=CCC(c3[nH]c(=O)[nH]c(=O)c3Cc3ccccc3)CC2)c(Cl)c1 (stereo not drawn) [Example 106]				2.1	
CCS(=O)(=O)c1ccc(C2=CCC(c3[nH]c(=O)[nH]c(=O)c3Cc3ccccc3)CC2)c(Cl)c1 (stereo not drawn) [Example 107]				2.8	
O=c1[nH]c(C2CC=C(c3ccc(OC(F)F)cc3Cl)CC2)c(Cc2ccccc2)c(=O)[nH]1 (stereo not drawn) [Example 108]				5.4	
CN(C)c1ncccc1C1=CCC(c2[nH]c(=O)[nH]c(=O)c2Cc2ccccc2)CC1 (stereo not drawn) [Example 118]				0.76	

Reference: US12018001B2, “Pyrimidine cyclohexenyl glucocorticoid receptor modulators” (priority 2018, dated 2024)
